“And” between values parts separate entries of the source, which are not always exact repeats. Identical values can stand only once. “Also recorded” adds a separate entry of the source.
Legend:
[1] = system: mouse bone marrow derived osteoprogenitor cells; assay: In vitro osteoblast differentiation assay (cellular alkaline phosphatase); format: cell-based; settings: LA number = ng/ml lanthanum; for Effect on osteoblast differentiation, in words: lanthanum (III) ion = 100-15000 ng/ml, 17-estradiol 10^−10 M; for Relative specific activities of intracellular alkaline phosphatase, Mean ± SD / Relative specific activities of intracellular alkaline phosphatase, replicates 1-8 / Relative specific activities of intracellular alkaline phosphatase, replicates 1-4 / Relative specific activities or intracellular alkaline phosphatase, Mean ± SD / Relative specific activities or intracellular alkaline phosphatase, replicates 1-6: relative to mean of baseline group, 8 days; for Relative specific activities of intracellular alkaline phosphatase, Mean ± SD / Relative specific activities of intracellular alkaline phosphatase, replicates 1-8 / Relative specific activities of intracellular alkaline phosphatase, replicates 1-4 / Relative specific activities or intracellular alkaline phosphatase, Mean ± SD / Relative specific activities or intracellular alkaline phosphatase, replicates 1-6 / Combined results on osteoblast differentiation (relative specific ALP activity), Mean ± SD: Control = Baseline+10^−10 M 17-estradiol; for Relative specific activities or intracellular alkaline phosphatase, Mean ± SD / Relative specific activities or intracellular alkaline phosphatase, replicates 1-6: second osteoblast differentiation assay; for Combined results on osteoblast differentiation (relative specific ALP activity), Mean ± SD: tables 8-10 combined, number 18
From the text: We have established a culture model in which mouse bone marrow derived osteoprogenitor cells first proliferate and then differentiate to osteoblasts capable of forming mineralized bone nodules (Qu et al. 1998, Qu et al. 1999). We confirmed this by following the expression of several markers of the osteoblastic phenotype and by studying the morphology of cultures at light and electron microscopic level. […] Thus, this culture system fulfills requirements of an in vitro model useful for studying differentiation of osteoprogenitor cells into bone synthesizing osteoblasts. […] Animals were killed by cervical dislocation. Both femora were removed and the soft tissues were detached aseptically. Metaphyses from both ends were cut off and bone marrow cells were collected by flushing the diaphysis with culture medium: phenol red-free-α-modified essential medium (α-MEM (Gibco BRL, Paisley, UK)). […] The cells were cultured for 6 days and half of the media […] days. […] Cells were washed with warm PBS and adherent cells were detached using trypsin-EDTA. […] The test substances were added at the beginning of the secondary culture without estrogen, and every time when the medium was changed. The number of osteoblasts formed was determined by measuring cellular alkaline phosphatase (ALP) activity in the culture. […] Louis, Mo., USA), and overnight freezing. ALP activity was determined colorimetrically using p-nitrophenylphosphate as substrate at pH 9.7 and determining the optical density at 405 nm. In parallel, protein contents of the wells were determined by the BIO-RAD protein assay, and the specific ALP activity is expressed as units/mg protein. […] Osteoblast differentiation was determined by measuring cellular alkaline phosphatase (ALP) activities and total protein amounts from cell lysates. The ALP activities were divided with the corresponding protein amounts to obtain specific activities of ALP. The results are shown as relative specific activities obtained by dividing each individual value with the mean value of the baseline group.

mature osteoblasts = assay: In vitro bone formation assay (calcium deposition into bone nodules); format: cell-based, mouse; settings: LA number = ng/ml lanthanum; for Effect on bone formation activity of mature osteoblasts, in words: lanthanum (III) / lanthanum (III) ion = all concentrations tested, 100 to 15,000 ng/ml, 17-estradiol 10^−10M; for Calcium deposition, Mean ± SD / Calcium deposition, replicates 1-6 / Calcium deposition, replicates 1-4 / Calcium deposition, replicates 1-8: calcium released from bone nodules after HCl extraction; for Calcium deposition, Mean ± SD / Calcium deposition, replicates 1-6 / Calcium deposition, replicates 1-4 / Calcium deposition, replicates 1-8 / Combined results on bone formation activity of mature osteoblasts (calcium released), Mean ± SD: Control = Baseline+10^−10M 17β-estradiol; for Combined results on bone formation activity of mature osteoblasts (calcium released), Mean ± SD: tables 13 and 14 combined, number 14
Method: The activity of mature osteoblasts can be determined by quantifying their ability to form mineralized bone matrix. This is done by demineralizing the formed bone matrix, and determining the amount of calcium released. Thus, this culture system fulfills requirements of an in vitro model useful for studying the bone formation activity of mature osteoblasts. […] At the end of the culture, the amount of calcium deposited during the culture period was determined, and the amount of bone formation (calcium deposition) calculated. […] Extracts of 50 μl were complexed with 1 ml determined o-cresol-phthalein-complexon. The colorimetric reaction was determined at 570 nm in a spectrophotometer. Absolute calcium concentrations were determined by comparison with a calibrated standard provided by the vendor. In this study, the effect of lanthanum carbonate on bone formation was tested. […] The amount of bone formation was determined by measuring the amount of calcium deposited into bone nodules formed by mature osteoblasts. The results are shown as the amount of calcium released (mmol/L) from the bone nodules after HCl extraction. The baseline values are too low to show the results using relative amounts as was done in the other assays.

[2] = system: osteoclasts cultured on bone slices; assay: In vitro bone resorption assay (osteoclasts on bovine bone slices, CrossLaps); format: cell-based, rat; settings: Control = Baseline+10 nM bafilomycin Al; for Relative medium CrossLaps amounts per osteoclast, replicates 1-6 / Relative medium CrossLaps amounts per osteoclast, Mean ± SD: first bone resorption assay; for Relative medium CrossLaps amounts per osteoclast, replicates 1-6 / Relative medium CrossLaps amounts per osteoclast, Mean ± SD / Relative medium CrossLaps amounts per osteoclasts, Mean ± SD / Relative medium CrossLaps amounts per osteoclasts, replicates 1-6: relative to mean of baseline group, 72 hours; for Relative medium CrossLaps amounts per osteoclast, replicates 1-6: LA number = ng/ml lanthanum in culture medium; for Relative medium CrossLaps amounts per osteoclast, Mean ± SD / Relative medium CrossLaps amounts per osteoclasts, Mean ± SD / Relative medium CrossLaps amounts per osteoclasts, replicates 1-6 / Combined results on bone resorption (relative medium CrossLaps per osteoclast), Mean ± SD: LA number = ng/ml lanthanum; for Relative medium CrossLaps amounts per osteoclasts, Mean ± SD / Relative medium CrossLaps amounts per osteoclasts, replicates 1-6: second bone resorption assay; for Combined results on bone resorption (relative medium CrossLaps per osteoclast), Mean ± SD: tables 1 and 2 combined, number 12
From the text: The method of osteoclast culture on bone slices was originally described by Boyde et al. (1984) and by Chambers et al. (1984). For cell culture, we used a method slightly modified from the original methods (Lakkakorpi et al. 1989, Lakkakorpi and Väänänen, 1991). The rate of bone resorption in the cultures was originally determined by counting the number of resorption pits on each bone or dentine slice using a microscope with phase contrast objectives (Sundquist et al. 1990). Later, the pits were visualized using Wheat Germ Agglutinin lectin that specifically binds to the resorbed area in bone (Selander et al. 1994), making it possible to quantify the total resorbed area using a microscope and computer-assisted image analysis system (Laitala and Väänänen 1994, Hentunen et al. 1995). We used a commercially available method (CrossLaps for cultures, Osteometer Biotech, Herlev, Denmark) to detect the amount of collagen cross-links released into the culture medium as an index of the bone resorption rate (Bagger et al., 1999).
The study protocol uses a method where osteoclasts are cultured on bone slices and allowed to resorb bone. The system is ideal for determining the effect of drug candidates on the bone resorbing activity of osteoclasts. Drug candidates are added into the cell cultures at the beginning of the culture period, and the osteoclasts allowed to resorb bone for 3 days. The amount of bone resorbed during the culture period is determined and compared to the amount of bone resorbed in control cultures (those cultured in the absence of drug candidates).
Transverse 0.1 mm thick slices of cortical bone were cut from the diaphysis of fresh bovine femurs (Atria Slaughterhouse, Oulu, Finland) using a low-speed diamond saw, cleaned by ultrasonication in multiple changes of sterile distilled water, and stored at 4° C. before use. Long bones were removed from 1-day-old rat pups killed by decapitation. […] The resulting suspension of dispersed cells and bone fragments was agitated using a plastic pipette. Larger fragments were allowed to sediment for a few seconds and the supernatant was seeded onto the bone slices pre-wetted in the medium. After a settling period of 30 minutes at 37° C., the bone slices were washed by dipping in fresh medium, and then transferred to wells in 24-well culture dishes containing osteoclast culture medium. The bone slices were incubated in a humidified atmosphere of 95% air and 5% carbon dioxide at 37° C. for 72 hours.
After the culture period, the amount of bone resorption was determined by measuring the amount of collagen cross-links released into the culture medium using a commercial kit (CrossLaps for cultures, Osteometer Biotech) according to the manufacturer s instructions. The number of osteoclasts in each culture was determined by microscopic counting of the amount of TRAP-positive multinuclear cells, and the results are given as the number of collagen cross-links released per one osteoclast.
In the bone resorption assay, the amount of medium CrossLaps (nM) released into the culture medium was determined and the number of osteoclasts in the corresponding cultures calculated. The medium CrossLaps amounts were divided with the osteoclast numbers in the corresponding cultures, and the results are given on Table 1 as relative medium CrossLaps amounts per osteoclasts. The relative values were obtained by dividing each individual value with the mean value of the baseline group.

[3] = first osteoblast differentiation assay
[4] = preliminary osteoblast differentiation assay
[5] = preliminary bone formation assay

SMILES	Effect on osteoblast differentiation, in words [1]	Relative specific activities of intracellular alkaline phosphatase, Mean ± SD [1, 3]	Relative specific activities of intracellular alkaline phosphatase, replicates 1-8 [1, 3]	Relative specific activities of intracellular alkaline phosphatase, Mean ± SD [1, 4]	Relative specific activities of intracellular alkaline phosphatase, replicates 1-4 [1, 4]	Relative specific activities or intracellular alkaline phosphatase, Mean ± SD [1]	Relative specific activities or intracellular alkaline phosphatase, replicates 1-6 [1]	Combined results on osteoblast differentiation (relative specific ALP activity), Mean ± SD [1]	Effect on bone formation activity of mature osteoblasts, in words (mature osteoblasts)	Calcium deposition, Mean ± SD (mature osteoblasts; first bone formation assay) [mmol/L]	Calcium deposition, replicates 1-6 (mature osteoblasts; first bone formation assay)	Calcium deposition, Mean ± SD (mature osteoblasts; [5]) [mmol/L]	Calcium deposition, replicates 1-4 (mature osteoblasts; [5])	Calcium deposition, Mean ± SD (mature osteoblasts; second bone formation assay)	Calcium deposition, replicates 1-8 (mature osteoblasts; second bone formation assay)	Combined results on bone formation activity of mature osteoblasts (calcium released), Mean ± SD (mature osteoblasts) [mmol/L]	Relative medium CrossLaps amounts per osteoclast, replicates 1-6 [2]	Relative medium CrossLaps amounts per osteoclast, Mean ± SD [2]	Relative medium CrossLaps amounts per osteoclasts, Mean ± SD [2]	Relative medium CrossLaps amounts per osteoclasts, replicates 1-6 [2]	other results
O.O.O.O.O=C([O-])[O-].O=C([O-])[O-].O=C([O-])[O-].[La+3].[La+3] [LA 1000, lanthanum carbonate tetrahydrate]	No significant response; also recorded: do not decrease the formulation of osteoblasts	0.94 ± 0.14	1.01 and 0.78 and 0.81	0.94 ± 0.19	0.69 and 1.13 and 0.92 and 1.01	0.88 ± 0.21	0.73 and 0.71 and 1.19 and 0.81 and 0.72 and 1.09	0.92 ± 0.17	stimulate bone formation	1.29 ± 0.28	0.95 mmol/L and 1.66 mmol/L and 1.47 mmol/L and 1.41 mmol/L and 1.00 mmol/L and 1.25 mmol/L	0.07 ± 0.05	0.10 mmol/L and 0 mmol/L and 0.11 mmol/L and 0.05 mmol/L	1.14 ± 0.55(* mmol/L	1.76 mmol/L and 0.02 mmol/L and 1.52 mmol/L	1.20 ± 0.45	1.14 and 1.09 and 0.89 and 1.76 and 1.07 and 1.11	1.18 ± 0.30	1.13 ± 0.51	0.70 and 0.59 and 1.69 and 1.40 and 1.68 and 0.73	Combined results on bone resorption (relative medium CrossLaps per osteoclast), Mean ± SD [2]: 1.15 ± 0.40
O.O.O.O.O=C([O-])[O-].O=C([O-])[O-].O=C([O-])[O-].[La+3].[La+3] [LA 5000, lanthanum carbonate tetrahydrate]	inhibited	0.53 ± 0.06(***)	0.54 and 0.59 and 0.55	0.47 ± 0.03(***)	0.42 and 0.46 and 0.50 and 0.48	0.41 ± 0.10(***)	0.31 and 0.51 (2×) and 0.49 and 0.28 and 0.40	0.48 ± 0.09 (***)	best responses	1.46 ± 0.10	1.31 mmol/L and 1.55 mmol/L and 1.56 mmol/L and 1.52 mmol/L and 1.40 mmol/L and 1.39 mmol/L	1.06 ± 0.66	0.59 mmol/L and 1.64 mmol/L and 0.39 mmol/L and 1.62 mmol/L	1.47 ± 0.20(* mmol/L	1.08 mmol/L and 1.63 mmol/L and 1.30 mmol/L	1.47 ± 0.16	1.39 and 0.78 and 2.70 and 1.18 and 0.76 and 1.21	1.34 ± 0.71	1.20 ± 0.59	0.48 and 1.18 and 0.77 and 0.98 and 1.99 and 1.81	Combined results on bone resorption (relative medium CrossLaps per osteoclast), Mean ± SD [2]: 1.27 ± 0.63
